Results from patent publication US20260226493A1, “HERBICIDE RESISTANT PLANTS” (SYNGENTA CROP PROTECTION AG, priority 2023, published 2026).

Experiments:
[1] = test system: D4555 (Escherichia coli BioA) containing tobacco plants; test: Visual herbicide damage score on transgenic tobacco D4555 (pCMP MTP EcBioA); format: in vivo; conditions: 600 gai/ha, replicate clones A, B, C of events 8480, 8526
Source text: In order to determine if the overexpressed gene detailed in Example 3 confers resistance to BIO3-BIO1 inhibiting compounds when expressed in plants, GM tobacco lines were produced and tested with BIO3-BIO1 inhibiting compounds. Transgenic tobacco plants expressing the Escherichia coli BioA gene with (SEQ ID NO:203) and without a mitochondrial signal peptide (SEQ ID NO: 202).
Populations of transgenic tobacco comprising 20-30 transgenic events per plant transformation constructs were generated as described in Example 1. These lines were clonally propagated and 1 clone per event was sprayed with 600 g ai/ha compound L or A+0.2% Genapol X080 with a spray volume of 200 L/Ha (“g ai/ha” refers to grams of active compound per hectare).
[…] A score of 0 indicates no visible damage or stunting whereas a score of 100 indicates a complete death of the plant. 20 transgenic events (i.e. individual transgenic plants) from each GM tobacco line were transplanted to soil 1 week prior to spraying with BIO3-BIO1 inhibiting compounds. WT tobacco was included as a control.
• D4555 (Escherichia coli BioA) containing tobacco plants; 04602 (Pantoea ananatis BioA) containing tobacco plants; 04603 (Stenotrophomonas maltophilia BioA) containing tobacco plants; 04609 (Chroococcidiopsis sp. CCMEE 29 BioA) containing tobacco plants; 04611 (Bacillus subtilis BioA) containing tobacco plants; 04606 (Streptomyces viridochromogenes BioA) containing tobacco plants; 04607 (Pedobacter hartonius BioA) containing tobacco plants; 04608 (Chitinophaga filiformis BioA) containing tobacco plants; and 04610 (Tenacibaculum adriaticum BioA) containing tobacco plants, are shown in the “TABLES” section below in Tables 16 to 24 respectively.

[2] = molecular target: T1, Arabidopsis thaliana BIO3-BIO1 (BioDA) mutants (Arabidopsis thaliana, UniProt B0F481); test: BIO3-BIO1 mutant enzyme activity in the presence of herbicide, percentage inhibition (fluorometric DAPA assay); format: biochemical
T1 construct: with the predicted N-terminal mitochondrial transit peptide removed; 6xHis-tag (N); thrombin cleavage site (N); made in house; host or cells: E. coli BL21 (DE3) bioA
Method in brief: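 His-tagged Arabidopsis BIO3-BIO1 mutants, expressed in E. coli and purified by IMAC and SEC, were preincubated at 50 nM with herbicide for 10 min at 20 °C in EPPS pH 8.6 with pyridoxal phosphate. Reaction with 100 μM spermidine and 20 μM KAPA ran 75 min at 20 °C; DAPA was derivatised with o-phthalaldehyde and read at ex 410/em 470 nm. […].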

[3] = read-out: percentage inhibition

T1 sequence (B0F481 23-833, change not shown): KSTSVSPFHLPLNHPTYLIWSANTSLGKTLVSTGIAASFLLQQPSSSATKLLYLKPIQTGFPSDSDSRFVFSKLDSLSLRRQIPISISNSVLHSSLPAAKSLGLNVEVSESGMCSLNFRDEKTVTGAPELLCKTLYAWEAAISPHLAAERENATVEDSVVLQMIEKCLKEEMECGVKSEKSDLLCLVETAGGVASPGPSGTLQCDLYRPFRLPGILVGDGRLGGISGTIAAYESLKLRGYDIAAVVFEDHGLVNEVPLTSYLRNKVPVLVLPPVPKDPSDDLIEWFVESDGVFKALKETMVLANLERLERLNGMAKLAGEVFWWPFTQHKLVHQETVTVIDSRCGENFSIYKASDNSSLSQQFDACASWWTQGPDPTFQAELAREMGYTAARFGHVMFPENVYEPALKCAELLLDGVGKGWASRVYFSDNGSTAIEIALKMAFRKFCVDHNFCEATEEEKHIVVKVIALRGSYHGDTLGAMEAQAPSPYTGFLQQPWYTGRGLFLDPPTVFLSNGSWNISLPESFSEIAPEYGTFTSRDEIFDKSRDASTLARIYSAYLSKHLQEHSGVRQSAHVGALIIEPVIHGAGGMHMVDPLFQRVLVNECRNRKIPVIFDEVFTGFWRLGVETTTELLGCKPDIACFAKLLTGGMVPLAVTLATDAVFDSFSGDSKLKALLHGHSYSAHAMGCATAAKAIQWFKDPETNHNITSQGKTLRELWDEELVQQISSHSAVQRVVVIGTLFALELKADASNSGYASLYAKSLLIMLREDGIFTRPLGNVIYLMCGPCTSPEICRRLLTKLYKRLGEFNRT

Question: What does the source list for CCn1c(Cn2ccc(C(F)(F)F)n2)cc(=O)c(C(=O)O)c1-c1ccc(Cl)c(Cl)c1 [Compound L, 2-(3,4-dichlorophenyl)-1-ethyl-4-oxo-6-[[3-(trifluoromethyl)pyrazol-1-yl]methyl]pyridine-3-carboxylic acid]?
Answer: percentage of damage ([1]; 7 DAT): 0%; percentage of damage ([1]; 14 DAT): 0%; percentage of damage ([1]; 21 DAT): 0%; inhibition at 0.01 µM [2, 3]: 6%; inhibition at 0.075 µM [2, 3]: 44%; inhibition at 0.5 µM [2, 3]: 83%

Question: For CCOC(=O)c1nn(-c2ccc3c(c2)OC(F)(F)C(F)(F)O3)c2cccc(C(C)=O)c2c1=O [Compound A, ethyl 5-acetyl-4-oxo-1-(2,2,3,3-tetrafluoro-1,4-benzodioxin-6-yl)cinnoline-3-carboxylate], which percentage of damage ([1]; 7 DAT) is on record?
Answer: 0%

Question: What about the percentage of damage ([1]; 14 DAT) of the same compound?
Answer: 0%

Question: And the percentage of damage ([1]; 21 DAT)?
Answer: 0%

Question: Which percentage inhibition ([2]; WT (SEQ ID NO 294), 0.1 μM herbicide) does the source give for CCn1c(-c2ccc(Cl)c(Cl)c2)c(C(=O)O)c(=O)c2cc(F)ccc21 [Compound M, 2-(3,4-dichlorophenyl)-1-ethyl-6-fluoro-4-oxo-quinoline-3-carboxylic acid] here?
Answer: 23%

Question: What about the inhibition at 0.2 µM [2, 3] of the same compound?
Answer: 23%
